PubChem BioAssay (NCI)
Several values for one entry are separate records, joined by “and”; a condition that tells them apart may be missing. Equal values may be shown once.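 All cell lines were grown in 96-well plates and treated with compound for 48 hours. The concentration for 50% growth inhibition is given as GI50. TGI: concentration producing complete growth inhibition.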

Columns and labels:
Experiment in all cases: NCI-60 cell line screen, 48 h
SF-295 CNS = test system: SF-295 CNS
SF-268 CNS = test system: SF-268 CNS
OVCAR-8 ovarian = test system: OVCAR-8 ovarian
SW-620 colon = test system: SW-620 colon
DU-145 prostate = test system: DU-145 prostate
SF-539 CNS = test system: SF-539 CNS
SNB-75 CNS = test system: SNB-75 CNS
M14 melanoma = test system: M14 melanoma
MOLT-4 leukemia = test system: MOLT-4 leukemia
LOX IMVI melanoma = test system: LOX IMVI melanoma

| SMILES | GI50 (SF-295 CNS) | TGI (SF-295 CNS) | GI50 (SF-268 CNS) | TGI (SF-268 CNS) | GI50 (OVCAR-8 ovarian) | TGI (OVCAR-8 ovarian) | GI50 (SW-620 colon) | TGI (SW-620 colon) | GI50 (DU-145 prostate) | TGI (DU-145 prostate) | GI50 (SF-539 CNS) | TGI (SF-539 CNS) | GI50 (SNB-75 CNS) | TGI (SNB-75 CNS) | GI50 (M14 melanoma) | TGI (M14 melanoma) | GI50 (MOLT-4 leukemia) | TGI (MOLT-4 leukemia) | GI50 (LOX IMVI melanoma) | TGI (LOX IMVI melanoma) |
| --- | --- | --- | --- | --- | --- | --- | --- | --- | --- | --- | --- | --- | --- | --- | --- | --- | --- | --- | --- | --- |
| COc1ccc(-c2nc(N3CCOCC3)c3sc(CN(C)c4ncc(C(=O)NO)cn4)cc3n2)cn1 | < 0.01 µM | 0.042 µM | 0.0178 µM | 0.204 µM | < 0.01 µM | 0.222 µM | < 0.01 µM | 1.41 µM | < 0.01 µM | 0.141 µM | 0.0101 µM | 0.161 µM | < 0.01 µM | 0.152 µM | – | – | – | – | – | – |
| O=C(NC1CCCCC1)NS(=O)(=O)c1ccc(-n2nc3c(c2-c2ccc(Cl)cc2)Cc2ccccc2-3)cc1 | 11.3 µM | 28.9 µM | 20.1 µM | 45.6 µM | 11.9 µM | 49.6 µM | 2.46 µM | > 100 µM | 6.39 µM | 20.3 µM | 11.2 µM | 27.7 µM | 27.6 µM | > 100 µM | 13.7 µM | > 100 µM | 2.77 µM | 7.28 µM | 1.94 µM | 4.12 µM |
| COc1nc(N)nc2c1ncn2[C@@H]1O[C@H](CO)[C@@H](O)[C@@H]1O | > 100 µM | > 100 µM | > 100 µM | > 100 µM | > 100 µM | > 100 µM | > 100 µM | > 100 µM | > 100 µM | > 100 µM | > 100 µM | > 100 µM | > 100 µM | > 100 µM | > 100 µM | > 100 µM | 9.51 µM | > 100 µM | > 100 µM | > 100 µM |
| CCn1c(-c2nonc2N)nc2cncc(C(=O)NCCNC)c21 | > 25 µM | > 25 µM | 7.78 µM | > 25 µM | 15.3 µM | > 25 µM | 4.07 µM | > 25 µM | 22.8 µM | > 25 µM | 3.04 µM | > 25 µM | 0.246 µM | 6.61 µM | 17.2 µM | > 25 µM | > 25 µM | > 25 µM | > 25 µM | > 25 µM |
| Clc1ccc(C2=NN[C@H](c3cn(-c4ccccc4)nc3-c3ccccc3)C2)cc1 | 3.36 µM | 13.2 µM | 5.71 µM | 21.2 µM | 2.74 µM | 8.29 µM | 4.31 µM | 32 µM | 6.47 µM | 28.2 µM | 8.95 µM | 23 µM | 2.15 µM | 5.29 µM | 7.67 µM | 32.1 µM | 19.6 µM | > 100 µM | 3.99 µM | 15.1 µM |
| COc1ccc2c(c1)/C(=C\c1c(Cl)n(C)c3ccccc13)C(=O)N2 | 0.981 µM | 6.66 µM | 2.87 µM | 35.1 µM | 1.89 µM | 11.9 µM | 1.13 µM | 17.1 µM | 3.07 µM | 15 µM | 0.672 µM | 3.33 µM | 1.67 µM | 23.6 µM | 1.61 µM | 23.8 µM | 1.7 µM | > 22 µM | 0.83 µM | > 100 µM |
| COc1cccc(Cn2c(-c3nonc3NC(C)=O)nc3ccccc32)c1 | 1.85 µM | 78.7 µM | 7.82 µM | > 100 µM | 6.3 µM | > 100 µM | 3.08 µM | > 100 µM | 3.42 µM | 83.9 µM | 3.65 µM | > 100 µM | 0.144 µM | 3.85 µM | 4.02 µM | > 100 µM | 5.63 µM | > 100 µM | 6.1 µM | > 100 µM |
| Cc1cc2cc3cc(C)c(N)cc3[n+](C)c2cc1N | 1.56 µM | 11.4 µM | 2.03 µM | 6.98 µM | 2.26 µM | 5.88 µM | – | – | 1.77 µM | 9.64 µM | 2.79 µM | 7.75 µM | 1.75 µM | 14.4 µM | 1.8 µM | 4.82 µM | 2.58 µM | 13.6 µM | 1.35 µM | 3.34 µM |
| Cc1c(-c2nnc(-c3ccc(F)cc3)o2)nnn1-c1ccnc2c(C(F)(F)F)cccc12 | 29.6 µM | > 100 µM | 26.7 µM | > 100 µM | 41.8 µM | > 100 µM | 31.9 µM | > 100 µM | 30.4 µM | > 100 µM | 26.5 µM | > 100 µM | 19.5 µM | 61.2 µM | – | – | > 100 µM | > 100 µM | 44.5 µM | > 100 µM |
| O=C1c2cc([N+](=O)[O-])cc3cc([N+](=O)[O-])cc(c23)C(=O)N1CCCNCCNCCCN1C(=O)c2cc([N+](=O)[O-])cc3cc([N+](=O)[O-])cc(c23)C1=O | – | 8 µM | – | 2.03 µM | – | 3.39 µM | – | 4.52 µM | – | 19.4 µM | – | 1.26 µM | – | 2.57 µM | – | 3.31 µM | – | 1.41 µM | – | – |
| CC1OC(n2c3ccccc3c3c4c(c5c6ccccc6[nH]c5c32)C(=O)N(CCN2CCOCC2)C4=O)CC(O)C1O (stereo not given) | 1.61 µM | 6.23 µM | 1.66 µM | 9.65 µM | 2.74 µM | 16.5 µM | 1.07 µM | 8.78 µM | 2 µM | 7.85 µM | – | – | 0.729 µM | 5.87 µM | 1.43 µM | 5.95 µM | 1.2 µM | 9.93 µM | 0.962 µM | 6.12 µM |
| N#CCCSC(=S)C1CCCC1=N (stereo not given) | – | > 100 µM | – | > 100 µM | – | > 100 µM | – | > 100 µM | – | > 100 µM | – | > 100 µM | – | 94.4 µM | – | > 100 µM | – | > 100 µM | – | – |
| Nc1ccc(-c2nc3ccccc3o2)cc1S | 13.6 µM | 28.8 µM | 15 µM | 34.5 µM | 20.3 µM | 58 µM | 20.7 µM | 44.5 µM | 19.9 µM | 55.3 µM | 17.6 µM | 31.4 µM | – | – | 15.5 µM | 36.7 µM | 7.77 µM | > 100 µM | 12.3 µM | 24.8 µM |
| COC1=C2C[C@@H](C)C[C@@H](OC)[C@@H](O)[C@H](C)/C=C(\C)[C@@H](OC(N)=O)[C@H](OC)/C=C\C=C(/C)C(=O)NC(=CC1=O)C2=O | – | – | – | – | – | – | – | – | – | 4.66 µM and 10.3 µM and 14.2 µM | – | 9.47 µM and 12.2 µM and 2.68 µM | 7.93 µM and 4.68 µM and 1.12 µM | 18.6 µM and 19.2 µM and 3.97 µM | – | – | – | – | 0.0208 µM and 0.051 µM and 0.0459 µM | 1.48 µM and 1.38 µM |
